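How tested: cells in 96-well plates exposed to compound for 48 hours at five concentrations. The concentration for 50% growth inhibition is given as GI50. The concentration for full growth arrest is given as TGI.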
Legend:
Test in all cases: NCI anticancer screen, dose series, 48 h
SK-OV-3 ovarian = system: SK-OV-3 ovarian
U251 CNS = system: U251 CNS
786-0 renal = system: 786-0 renal
SNB-19 CNS = system: SNB-19 CNS
NCI-H23 lung = system: NCI-H23 lung
NCI-H522 lung = system: NCI-H522 lung
ACHN renal = system: ACHN renal
HOP-62 NSCLC = system: HOP-62 NSCLC
A549 NSCLC = system: A549 NSCLC
HT29 colon = system: HT29 colon
NCI/ADR-RES ovarian = system: NCI/ADR-RES ovarian
UACC-62 melanoma = system: UACC-62 melanoma
SR leukemia = system: SR leukemia
UACC-257 melanoma = system: UACC-257 melanoma
EKVX NSCLC = system: EKVX NSCLC
RPMI-8226 leukemia = system: RPMI-8226 leukemia
M14 melanoma = system: M14 melanoma
SF-539 CNS = system: SF-539 CNS
SK-MEL-28 melanoma = system: SK-MEL-28 melanoma
HCC-2998 colon = system: HCC-2998 colon
TK-10 renal = system: TK-10 renal
RXF 393 renal = system: RXF 393 renal
IGROV1 ovarian = system: IGROV1 ovarian
OVCAR-8 ovarian = system: OVCAR-8 ovarian
K-562 leukemia = system: K-562 leukemia
CAKI-1 renal = system: CAKI-1 renal
MALME-3M melanoma = system: MALME-3M melanoma
LOX IMVI melanoma = system: LOX IMVI melanoma
T-47D breast = system: T-47D breast
OVCAR-4 ovarian = system: OVCAR-4 ovarian
NCI-H460 lung = system: NCI-H460 lung
OVCAR-5 ovarian = system: OVCAR-5 ovarian
HCT-15 colon = system: HCT-15 colon
SF-268 CNS = system: SF-268 CNS
SK-MEL-2 melanoma = system: SK-MEL-2 melanoma
SF-295 CNS = system: SF-295 CNS
PC-3 prostate = system: PC-3 prostate
MDA-MB-435 = system: MDA-MB-435
MOLT-4 leukemia = system: MOLT-4 leukemia
COLO 205 colon = system: COLO 205 colon
DU-145 prostate = system: DU-145 prostate
OVCAR-3 ovarian = system: OVCAR-3 ovarian
MCF7 breast = system: MCF7 breast
HL-60(TB) leukemia = system: HL-60(TB) leukemia
BT-549 breast = system: BT-549 breast
UO-31 renal = system: UO-31 renal
KM12 colon = system: KM12 colon
HCT-116 colon = system: HCT-116 colon

c1cc2c(s1)SSSSS2
GI50 (SK-OV-3 ovarian): 34.5 µM
TGI (SK-OV-3 ovarian): 72.7 µM
GI50 (U251 CNS): 17.6 µM
TGI (U251 CNS): 39.6 µM
GI50 (786-0 renal): 14.9 µM
TGI (786-0 renal): 29.1 µM
GI50 (SNB-19 CNS): 22.9 µM
TGI (SNB-19 CNS): 47 µM
GI50 (NCI-H23 lung): 14.6 µM
TGI (NCI-H23 lung): 30.7 µM
GI50 (NCI-H522 lung): 27.8 µM
TGI (NCI-H522 lung): 81.8 µM
GI50 (ACHN renal): 15.5 µM
TGI (ACHN renal): 31.7 µM
GI50 (HOP-62 NSCLC): 28.2 µM
TGI (HOP-62 NSCLC): 55.3 µM
GI50 (A549 NSCLC): 31.8 µM
TGI (A549 NSCLC): > 100 µM
GI50 (HT29 colon): 23.3 µM
TGI (HT29 colon): 41.4 µM
GI50 (NCI/ADR-RES ovarian): 22.8 µM
TGI (NCI/ADR-RES ovarian): 46.4 µM
GI50 (UACC-62 melanoma): 13.8 µM
TGI (UACC-62 melanoma): 28.1 µM
GI50 (SR leukemia): 3.17 µM
TGI (SR leukemia): 22.8 µM
GI50 (UACC-257 melanoma): 35.2 µM
TGI (UACC-257 melanoma): > 100 µM
GI50 (EKVX NSCLC): 34.6 µM
TGI (EKVX NSCLC): 68.2 µM
GI50 (RPMI-8226 leukemia): 7.06 µM
TGI (RPMI-8226 leukemia): 29.4 µM
GI50 (M14 melanoma): 11.2 µM
TGI (M14 melanoma): 29.4 µM
GI50 (SF-539 CNS): 21.7 µM
TGI (SF-539 CNS): 39.6 µM
GI50 (SK-MEL-28 melanoma): 23 µM
TGI (SK-MEL-28 melanoma): 41.9 µM
GI50 (HCC-2998 colon): 24 µM
TGI (HCC-2998 colon): 39.9 µM
GI50 (TK-10 renal): 16.7 µM
TGI (TK-10 renal): 33.5 µM
GI50 (RXF 393 renal): 18.4 µM
TGI (RXF 393 renal): 41.5 µM
GI50 (IGROV1 ovarian): 19 µM
TGI (IGROV1 ovarian): 43.1 µM
GI50 (OVCAR-8 ovarian): 36.3 µM
TGI (OVCAR-8 ovarian): > 100 µM
GI50 (K-562 leukemia): 16.1 µM
TGI (K-562 leukemia): > 100 µM
GI50 (CAKI-1 renal): 17.8 µM
TGI (CAKI-1 renal): 36.6 µM
GI50 (MALME-3M melanoma): 17.1 µM
TGI (MALME-3M melanoma): 40.2 µM
GI50 (LOX IMVI melanoma): 11.9 µM
TGI (LOX IMVI melanoma): 40.3 µM
GI50 (T-47D breast): 13 µM
TGI (T-47D breast): 32.4 µM
GI50 (OVCAR-4 ovarian): 24.2 µM
TGI (OVCAR-4 ovarian): 46.9 µM
GI50 (NCI-H460 lung): 19.9 µM
TGI (NCI-H460 lung): 42.2 µM
GI50 (OVCAR-5 ovarian): 21.1 µM
TGI (OVCAR-5 ovarian): 36.6 µM
GI50 (HCT-15 colon): 15.8 µM
TGI (HCT-15 colon): 85.9 µM
GI50 (SF-268 CNS): 19.1 µM
TGI (SF-268 CNS): 38.6 µM
GI50 (SK-MEL-2 melanoma): 29.3 µM
TGI (SK-MEL-2 melanoma): > 100 µM
GI50 (SF-295 CNS): 18.3 µM
TGI (SF-295 CNS): 36.9 µM
GI50 (PC-3 prostate): 16.5 µM
TGI (PC-3 prostate): 39.6 µM
GI50 (MDA-MB-435): 18.9 µM
TGI (MDA-MB-435): 35.8 µM
GI50 (MOLT-4 leukemia): 18.8 µM
TGI (MOLT-4 leukemia): > 100 µM
GI50 (COLO 205 colon): 17.6 µM
TGI (COLO 205 colon): 46.6 µM
GI50 (DU-145 prostate): 17.1 µM
TGI (DU-145 prostate): 34.1 µM
GI50 (OVCAR-3 ovarian): 18 µM
TGI (OVCAR-3 ovarian): 34.5 µM
GI50 (MCF7 breast): 16.4 µM
TGI (MCF7 breast): 35 µM
GI50 (HL-60(TB) leukemia): 11.8 µM
TGI (HL-60(TB) leukemia): > 100 µM
GI50 (BT-549 breast): 33.8 µM
TGI (BT-549 breast): 85.9 µM
GI50 (UO-31 renal): 17.6 µM
TGI (UO-31 renal): 33.7 µM
GI50 (KM12 colon): 19.3 µM
TGI (KM12 colon): 38.1 µM
GI50 (HCT-116 colon): 9.06 µM
TGI (HCT-116 colon): 21.2 µM

Source: PubChem BioAssay (NCI)
